{"source": "PubChem BioAssay (NCI)", "test_in_all_cases": "NCI-60 cell line screen, 48 h", "key": {"786-0 renal": {"system": "786-0 renal"}, "ACHN renal": {"system": "ACHN renal"}, "DU-145 prostate": {"system": "DU-145 prostate"}, "HOP-92 NSCLC": {"system": "HOP-92 NSCLC"}, "MALME-3M melanoma": {"system": "MALME-3M melanoma"}, "NCI-H522 lung": {"system": "NCI-H522 lung"}, "NCI/ADR-RES ovarian": {"system": "NCI/ADR-RES ovarian"}, "SK-OV-3 ovarian": {"system": "SK-OV-3 ovarian"}, "T-47D breast": {"system": "T-47D breast"}, "TK-10 renal": {"system": "TK-10 renal"}}, "note": "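Values below derive from 48-hour exposures of cells grown in 96-well plates, with endpoints linearly interpolated between the two concentrations bracketing the appropriate inhibition level. Here, GI50 denotes the concentration required for 50% inhibition of growth. The concentration for full growth arrest is given as TGI.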"}
{"smiles": "O=C(O)CS(=O)c1ccc2c3c(cccc13)C(=O)c1ccccc1-2", "note": "(stereo not given)", "values": [{"measurement": "TGI", "setting": "786-0 renal", "value": "> 100", "unit": "µM"}, {"measurement": "TGI", "setting": "ACHN renal", "value": "> 100", "unit": "µM"}, {"measurement": "TGI", "setting": "DU-145 prostate", "value": "> 100", "unit": "µM"}, {"measurement": "TGI", "setting": "HOP-92 NSCLC", "value": "> 100", "unit": "µM"}, {"measurement": "TGI", "setting": "MALME-3M melanoma", "value": "> 100", "unit": "µM"}, {"measurement": "TGI", "setting": "NCI-H522 lung", "value": "> 100", "unit": "µM"}, {"measurement": "TGI", "setting": "NCI/ADR-RES ovarian", "value": "> 100", "unit": "µM"}, {"measurement": "TGI", "setting": "SK-OV-3 ovarian", "value": "> 100", "unit": "µM"}, {"measurement": "TGI", "setting": "T-47D breast", "value": "> 100", "unit": "µM"}, {"measurement": "TGI", "setting": "TK-10 renal", "value": "> 100", "unit": "µM"}]}
{"smiles": "O=C(Nc1ccc(Cl)cc1)c1cccc([N+](=O)[O-])c1O", "values": [{"measurement": "TGI", "setting": "786-0 renal", "value": "> 56.7", "unit": "µM"}, {"measurement": "TGI", "setting": "ACHN renal", "value": "> 100", "unit": "µM"}, {"measurement": "TGI", "setting": "HOP-92 NSCLC", "value": 4.72, "unit": "µM"}, {"measurement": "TGI", "setting": "MALME-3M melanoma", "value": 9.97, "unit": "µM"}, {"measurement": "TGI", "setting": "NCI-H522 lung", "value": 6.36, "unit": "µM"}, {"measurement": "TGI", "setting": "SK-OV-3 ovarian", "value": 13.7, "unit": "µM"}, {"measurement": "TGI", "setting": "TK-10 renal", "value": "> 44.4", "unit": "µM"}]}
{"smiles": "COc1cc(C(=O)O[C@H](C(=O)NCCNC(=O)[C@@H](OC(=O)c2cc(OC)cc3c(C)cccc23)[C@]2(C)CO2)[C@]2(C)CO2)c2cccc(C)c2c1", "values": [{"measurement": "GI50", "setting": "DU-145 prostate", "value": 0.257, "unit": "µM"}, {"measurement": "TGI", "setting": "DU-145 prostate", "value": 1.46, "unit": "µM"}, {"measurement": "GI50", "setting": "HOP-92 NSCLC", "value": 0.101, "unit": "µM"}, {"measurement": "TGI", "setting": "HOP-92 NSCLC", "value": 0.404, "unit": "µM"}, {"measurement": "GI50", "setting": "NCI/ADR-RES ovarian", "value": 0.25, "unit": "µM"}, {"measurement": "TGI", "setting": "NCI/ADR-RES ovarian", "value": 1.52, "unit": "µM"}, {"measurement": "GI50", "setting": "SK-OV-3 ovarian", "value": 0.827, "unit": "µM"}, {"measurement": "TGI", "setting": "SK-OV-3 ovarian", "value": 9.74, "unit": "µM"}, {"measurement": "GI50", "setting": "T-47D breast", "value": 0.417, "unit": "µM"}, {"measurement": "TGI", "setting": "T-47D breast", "value": 3.48, "unit": "µM"}, {"measurement": "GI50", "setting": "TK-10 renal", "value": 0.475, "unit": "µM"}, {"measurement": "TGI", "setting": "TK-10 renal", "value": 1.9, "unit": "µM"}]}
{"smiles": "NC(Cc1ccccc1)=NCC(=O)O", "values": [{"measurement": "TGI", "setting": "786-0 renal", "value": "> 100", "unit": "µM"}, {"measurement": "TGI", "setting": "ACHN renal", "value": "> 100", "unit": "µM"}, {"measurement": "TGI", "setting": "DU-145 prostate", "value": "> 100", "unit": "µM"}, {"measurement": "TGI", "setting": "HOP-92 NSCLC", "value": "> 100", "unit": "µM"}, {"measurement": "TGI", "setting": "MALME-3M melanoma", "value": "> 100", "unit": "µM"}, {"measurement": "TGI", "setting": "NCI-H522 lung", "value": "> 100", "unit": "µM"}, {"measurement": "TGI", "setting": "NCI/ADR-RES ovarian", "value": "> 100", "unit": "µM"}, {"measurement": "TGI", "setting": "SK-OV-3 ovarian", "value": "> 100", "unit": "µM"}, {"measurement": "TGI", "setting": "T-47D breast", "value": "> 100", "unit": "µM"}, {"measurement": "TGI", "setting": "TK-10 renal", "value": "> 100", "unit": "µM"}]}
{"smiles": "O=C(Nc1ccc(-n2cc(-c3ccncc3)c(-c3ccc(O)c(Cl)c3)n2)cc1)c1cc(Cl)cc(Cl)c1", "values": [{"measurement": "GI50", "setting": "ACHN renal", "value": 1.51, "unit": "µM"}, {"measurement": "TGI", "setting": "ACHN renal", "value": "> 32.5", "unit": "µM"}, {"measurement": "GI50", "setting": "DU-145 prostate", "value": 2.17, "unit": "µM"}, {"measurement": "TGI", "setting": "DU-145 prostate", "value": "> 32.5", "unit": "µM"}, {"measurement": "GI50", "setting": "HOP-92 NSCLC", "value": 1.28, "unit": "µM"}, {"measurement": "TGI", "setting": "HOP-92 NSCLC", "value": "> 32.5", "unit": "µM"}, {"measurement": "GI50", "setting": "MALME-3M melanoma", "value": 2.66, "unit": "µM"}, {"measurement": "TGI", "setting": "MALME-3M melanoma", "value": "> 32.5", "unit": "µM"}, {"measurement": "GI50", "setting": "NCI-H522 lung", "value": 1.03, "unit": "µM"}, {"measurement": "TGI", "setting": "NCI-H522 lung", "value": "> 32.5", "unit": "µM"}, {"measurement": "GI50", "setting": "NCI/ADR-RES ovarian", "value": 1.92, "unit": "µM"}, {"measurement": "TGI", "setting": "NCI/ADR-RES ovarian", "value": "> 32.5", "unit": "µM"}, {"measurement": "GI50", "setting": "T-47D breast", "value": 18.6, "unit": "µM"}, {"measurement": "TGI", "setting": "T-47D breast", "value": "> 32.5", "unit": "µM"}, {"measurement": "GI50", "setting": "TK-10 renal", "value": 6.8, "unit": "µM"}, {"measurement": "TGI", "setting": "TK-10 renal", "value": "> 32.5", "unit": "µM"}]}
{"smiles": "C\\C=C/C=C/C=C/C(=O)O", "values": [{"measurement": "TGI", "setting": "786-0 renal", "value": "> 100", "unit": "µM"}, {"measurement": "TGI", "setting": "ACHN renal", "value": "> 100", "unit": "µM"}, {"measurement": "TGI", "setting": "MALME-3M melanoma", "value": "> 100", "unit": "µM"}, {"measurement": "TGI", "setting": "NCI-H522 lung", "value": "> 100", "unit": "µM"}, {"measurement": "TGI", "setting": "SK-OV-3 ovarian", "value": "> 100", "unit": "µM"}]}
